From patent publication US10676492B2, “Branched amphiphilic lipids” (UNIVERSITÉ DE BRETAGNE OCCIDENTALE, priority 2015, dated 2020) come the findings set out here.

Data set [1] can be described thus: Structural organisation study via 31P NMR (Hahn echo) of hydrated lipids. Format: physicochemical. To be noted: hydrated medium, ambient temperature. As for the experimental part: A stock solution of a cationic lipid is prepared in the chloroform. A volume of stock solution corresponding to a weight in lipids between 50 mg and 100 mg is pipette into a haemolysis tube and the chloroform is evaporated under of flow of N2 in such a way as to obtain a lipid film. 500 μL of water is then added and the mixture is subjected to ultrasound until complete dispersion of the lipid film. The mixture is lysed for one night. A volume of distilled water is then added in order to obtain a solution with a concentration of 100 mg·mL^−1. In order to ensure the balance of the sample, three cycles −198° C./50° C. are carried out: the sample is placed at −198° C. (liquid nitrogen) for 5 min, then the sample is placed in a water bath at 50° C. for 30 min and is vortexed.
The NMR ^31P spectra were acquired with a Hahn echo sequence (90°-τ-180°-τ-acq). The acquisition parameters were as follows: spectral window of 200 KHz, a pulse π/2 with a duration of […], a recycling period of 5 s and an echo period of 40 μs. The number of acquisitions depends on the volume of the sample and the acquisition temperature, and is between 128 and 1700 scans. The temperature of the sample is balanced for 30 min before the start of the acquisition. Lorentzian noise is filtered over the entire spectral window before the Fourier transform on the top of the echo. […]

The nature of data set [2]: Measurement of the size and zeta potential of liposomes (Zetasizer Nano ZS). In kind it is physicochemical. To be noted: liposomal solution in water, 25° C. As to the method: The cationic lipids were formulated in a liposomal solution by the method of hydration of a lipid film. Initially, a fraction of a concentrated solution of the cationic lipid is placed in a glass tube and evaporated to give a thin lipid film. 1 mL of water is then added to the film and the film is hydrated for 3 days at 4° C. The solution is then vortexed (1 min) and placed under ultrasound (30 to 60 min) at 45 kHz. Then 150 μL of the liposomal solution is diluted in 1.5 mL of sterile water. After filtration ([…]) of the liposomal solution, the size and the zeta potential of liposomes and lipoplexes are determined.
The size and zeta potential (ξ) of the liposomes and of the lipoplexes were measured with a Zetasizer Nano ZS (Malvern Instruments) at 25° C. after a suitable dilution of the formulations. For the measurements of the lipoplexes, each test used […] of plasmid DNA in water with the required amount of cationic lipid studied in order to form lipoplexes with charge ratios ranging from 0.5 to 8.0. For the measurements of the liposomes, a quantity of lipid equivalent to a mixture having a 1.0 charge ratio in water was used.

In the case of `CCCCCCCC/C=C/CCCCCCCCOP(=O)(NCC[N+](C)(C)C)OCCCCCCCC/C=C/CCCCCCCC.[I-]` [Compound I-1], the “structure of the supramolecular aggregates (self-organisation)” value in data set [1] is “lamellar form”. Further, in data set [2], the PdI came to 0.26, the “Size (nm)” value is reported as 94 nm and the “Zeta Potential (mV)” value is on record as “+54 mV”.
